Measured values: US20180265515A1 (Genentech, Inc., priority 2015, published 2018)

Tests used:
[1] = target: T1, isolated recombinant JAK1 kinase domain (Homo sapiens, UniProt P23458); experiment: JAK1 enzyme assay (Caliper LabChip, Ki); format: biochemical; details: recombinant JAK1 kinase domain, 25 μM ATP
T1 construct: The activity of the isolated recombinant JAK1 and JAK2 kinase domain was measured
Outline: (§1)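 Recombinant JAK1 or JAK2 kinase domain phosphorylating a 5-carboxyfluorescein-labelled JAK3-derived peptide, 30 min at 22° C, stopped with EDTA. Phosphorylated fraction of substrate quantified by Caliper LabChip microfluidic separation. Ki from Morrison tight-binding model corrected for ATP competition (Ki=Ki,app/(1+[ATP]/Km,app)).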

[2] = test system: JAK1-dependent STAT6 phosphorylation downstream of IL-13 stimulation in BEAS-2B human bronchial epithelial cells; experiment: JAK1 pathway assay in BEAS-2B cells (IL-13 stimulated STAT6 phosphorylation, MSD); format: cell-based; details: read-out: P-STAT6 BEAS2B + IL13 IC50
Outline: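 BEAS-2B human bronchial epithelial cells, plated the day before in complete growth medium, were preincubated with compound for 1 hr at 37° C (0.2% DMSO final), then stimulated with IL-13 at its EC90 for 15 min. STAT6 phosphorylation in lysates was read by MSD; EC50 was taken as 50% inhibition versus DMSO control.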

[3] = target: T2, isolated recombinant JAK2 kinase domain (Homo sapiens, UniProt O60674); experiment: JAK2 enzyme assay (Caliper LabChip, Ki); format: biochemical; details: 25 μM ATP
T2 construct: The activity of the isolated recombinant JAK1 and JAK2 kinase domain was measured
Outline: as §1

T2 sequence (O60674 849-1124 limits assumed): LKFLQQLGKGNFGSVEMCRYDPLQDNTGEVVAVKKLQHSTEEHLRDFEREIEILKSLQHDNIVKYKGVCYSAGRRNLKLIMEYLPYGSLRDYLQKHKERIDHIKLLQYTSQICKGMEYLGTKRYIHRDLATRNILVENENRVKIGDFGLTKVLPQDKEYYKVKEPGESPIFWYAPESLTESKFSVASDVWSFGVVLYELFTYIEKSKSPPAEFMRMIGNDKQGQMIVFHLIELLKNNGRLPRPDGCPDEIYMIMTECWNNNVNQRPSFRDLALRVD
T1 sequence (P23458 875-1153 limits assumed): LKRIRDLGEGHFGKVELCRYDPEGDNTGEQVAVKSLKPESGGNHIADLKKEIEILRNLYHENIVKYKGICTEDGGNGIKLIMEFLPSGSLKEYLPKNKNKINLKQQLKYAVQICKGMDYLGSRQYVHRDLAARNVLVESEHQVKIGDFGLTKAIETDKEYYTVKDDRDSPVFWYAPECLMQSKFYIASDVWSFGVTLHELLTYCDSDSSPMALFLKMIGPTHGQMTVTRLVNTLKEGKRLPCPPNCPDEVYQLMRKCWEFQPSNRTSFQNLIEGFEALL

Ki [1] [nM] | Ki [3] [nM] | Compound | IC50 [2] [nM]
0.4 | 0.79 | CC(C)Sc1ccc(OC(F)F)c(-c2nn(CC(=O)N3CCC(N4CCN(C)C(=O)C4)CC3)cc2NC(=O)c2cnn3cccnc23)c1 [Example 106, N-[3-[2-(difluoromethoxy)-5-isopropylsulfanyl-phenyl]-1-[2-[4-(4-methyl-3-oxo-piperazin-1-yl)-1-piperidyl]-2-oxo-ethyl]pyrazol-4-yl]pyrazolo[1,5-a]pyrimidine-3-carboxamide] | 110
0.75 | 1.7 | CC(C)Sc1ccc(OC(F)F)c(-c2nn(CC(=O)N3CCC(N4CCCC(C#N)C4)CC3)cc2NC(=O)c2cnn3cccnc23)c1 (stereo not drawn) [Example 107, N-[1-[2-[4-(3-cyano-1-piperidyl)-1-piperidyl]-2-oxo-ethyl]-3-[2-(difluoromethoxy)-5-isopropylsulfanyl-phenyl]pyrazol-4-yl]pyrazolo[1,5-a]pyrimidine-3-carboxamide] | 56
0.37 | 0.94 | CC(C)Sc1ccc(OC(F)F)c(-c2nn(CC(=O)N3CCC(N4CCNC(=O)C4)CC3)cc2NC(=O)c2cnn3cccnc23)c1 [Example 108, N-[3-[2-(difluoromethoxy)-5-isopropylsulfanyl-phenyl]-1-[2-oxo-2-[4-(3-oxopiperazin-1-yl)-1-piperidyl]ethyl]pyrazol-4-yl]pyrazolo[1,5-a]pyrimidine-3-carboxamide] | 850
0.41 | 0.78 | CC(C)Sc1ccc(OC(F)F)c(-c2nn(CC(=O)N3CCN(CCN4CCOCC4)CC3)cc2NC(=O)c2cnn3cccnc23)c1 [Example 109, N-[3-[2-(difluoromethoxy)-5-isopropylsulfanyl-phenyl]-1-[2-[4-(2-morpholinoethyl)piperazin-1-yl]-2-oxo-ethyl]pyrazol-4-yl]pyrazolo[1,5-a]pyrimidine-3-carboxamide] | 33
0.41 | 1 | CC(C)Sc1ccc(OC(F)F)c(-c2nn(CC(=O)N3CCC(N(C)C4COC4)CC3)cc2NC(=O)c2cnn3cccnc23)c1 [Example 110, N-[3-[2-(difluoromethoxy)-5-isopropylsulfanyl-phenyl]-1-[2-[4-[methyl(oxetan-3-yl)amino]-1-piperidyl]-2-oxo-ethyl]pyrazol-4-yl]pyrazolo[1,5-a]pyrimidine-3-carboxamide] | 27
0.38 | 1 | CC(C)Sc1ccc(OC(F)F)c(-c2nn(CC(=O)N3CCC(N4CCSCC4)CC3)cc2NC(=O)c2cnn3cccnc23)c1 [Example 111, N-[3-[2-(difluoromethoxy)-5-isopropylsulfanyl-phenyl]-1-[2-oxo-2-(4-thiomorpholino-1-piperidyl)ethyl]pyrazol-4-yl]pyrazolo[1,5-a]pyrimidine-3-carboxamide] | 19
0.39 | 0.39 | CC(C)Sc1ccc(OC(F)F)c(-c2nn(CCN)cc2NC(=O)c2cnn3cccnc23)c1 [Example 112, N-[1-(2-aminoethyl)-3-[2-(difluoromethoxy)-5-isopropylsulfanyl-phenyl]pyrazol-4-yl]pyrazolo[1,5-a]pyrimidine-3-carboxamide] | 18
0.64 | 0.78 | CC(C)Sc1ccc(OC(F)F)c(-c2nn(C[C@H]3CCCN3)cc2NC(=O)c2cnn3cccnc23)c1 [Example 113, N-[3-[2-(difluoromethoxy)-5-isoproplsulfanyl-phenyl]-1-[[(2R)-pyrrolidin-2-yl]methyl]pyrazol-4-yl]pyrazolo[1,5-a]pyrimidine-3-carboxamide] | 20
1.6 | 3.9 | CC(C)Sc1ccc(OC(F)F)c(-c2nn(CC(=O)N3CCC(CN4CCN(CC(=O)N(C)C)CC4)CC3)cc2NC(=O)c2cnn3cccnc23)c1 [Example 114, N-[3-[2-(difluoromethoxy)-5-isopropylsulfanyl-phenyl]-1-[2-[4-[[4-[2-(dimethylamino)-2-oxo-ethyl]piperazin-1-yl]methyl]-1-piperidyl]-2-oxo-ethyl]pyrazol-4-yl]pyrazolo[1,5-a]pyrimidine-3-carboxamide] | 55
0.65 | 1.6 | CC(C)Sc1ccc(OC(F)F)c(-c2nn(CC(=O)N3CCC(NCC4(C#N)CC4)CC3)cc2NC(=O)c2cnn3cccnc23)c1 [Example 115, N-[1-[2-[4-[(1-cyanocyclopropyl)methylamino]-1-piperidyl]-2-oxo-ethyl]-3-[2-(difluoromethoxy)-5-isopropylsulfanyl-phenyl]pyrazol-4-yl]pyrazolo[1,5-a]pyrimidine-3-carboxamide] | 34
0.51 | 1 | COCCN1CCN(C(=O)Cn2cc(NC(=O)c3cnn4cccnc34)c(-c3cc(SC(C)C)ccc3OC(F)F)n2)CC1 [Example 116, N-[3-[2-(difluoromethoxy)-5-isopropylsulfanyl-phenyl]-1-[2-[4-(2-methoxyethyl)piperazin-1-yl]-2-oxo-ethyl]pyrazol-4-yl]pyrazolo[1,5-a]pyrimidine-3-carboxamide] | 26
0.7 | 1.4 | CC(C)Sc1ccc(OC(F)F)c(-c2nn(CC(=O)N3CCN(C)CC3)cc2NC(=O)c2cnn3cccnc23)c1 [Example 117, N-[3-[2-(difluoromethoxy)-5-isopropylsulfanyl-phenyl]-1-[2-(4-methylpiperazin-1-yl)-2-oxo-ethyl]pyrazol-4-yl]pyrazolo[1,5-a]pyrimidine-3-carboxamide] | 21
0.6 | 1.8 | CC(C)Sc1ccc(OC(F)F)c(-c2nn(CC(=O)N3CCC(N4CCN(C)CC4)CC3)cc2NC(=O)c2cnn3cccnc23)c1 [Example 118, N-[3-[2-(difluoromethoxy)-5-isopropylsulfanyl-phenyl]-1-[2-[4-(4-methylpiperazin-1-yl)-1-piperidyl]-2-oxo-ethyl]pyrazol-4-yl]pyrazolo[1,5-a]pyrimidine-3-carboxamide] | 40
0.47 | 0.96 | CC(C)Sc1ccc(OC(F)F)c(-c2nn(CC(=O)N3CCN(C4CCSCC4)CC3)cc2NC(=O)c2cnn3cccnc23)c1 [Example 119, N-[3-[2-(difluoromethoxy)-5-isopropylsulfanyl-phenyl]-1-[2-oxo-2-(4-tetrahydrothiopyran-4-ylpiperazin-1-yl)ethyl]pyrazol-4-yl]pyrazolo[1,5-a]pyrimidine-3-carboxamide] | 30
0.4 | 1.2 | CC(C)Sc1ccc(OC(F)F)c(-c2nn(CC(=O)N3CCC(NCC(C)(C)C#N)CC3)cc2NC(=O)c2cnn3cccnc23)c1 [Example 120, N-[1-[2-[4-[(2-cyano-2-methyl-propyl)amino]-1-piperidyl]-2-oxo-ethyl]-3-[2-(difluoromethoxy)-5-isopropylsulfanyl-phenyl]pyrazol-4-yl]pyrazolo[1,5-a]pyrimidine-3-carboxamide] | 27
0.7 | 1.3 | CCN1CCN(C(=O)Cn2cc(NC(=O)c3cnn4cccnc34)c(-c3cc(SC(C)C)ccc3OC(F)F)n2)CC1 [Example 121, N-[3-[2-(difluoromethoxy)-5-isopropylsulfanyl-phenyl]-1-[2-(4-ethylpiperazin-1-yl)-2-oxo-ethyl]pyrazol-4-yl]pyrazolo[1,5-a]pyrimidine-3-carboxamide] | 31
